≈ marks a conversion by molar mass, not a printed value. Like-named read-outs stand apart in the source and are kept apart here.
How the values were obtained:
Assay type in all cases: cell-based
[1] = tested on: Influenza A virus (hanfang359/95); test: Determination of anti-influenza virus activity (CPE in MDCK cells); details: for IC50: Influenza A virus, MDCK, 36 h; for anti-influenza virus activities compared with the lead compound cajanine: statement in words
Coxsackie virus B6 = test: Coxsackie virus activity assay (CPE in Vero cells); details: for IC50: Vero
HCV = test: Anti-hepatitis C virus (HCV) activity assay (HCV RNA in Huh7.5 cells); details: for EC50: Hepatitis C virus, Huh7.5, 72 h, read-out: HCV EC50; for anti-HCV viral activity: statement in words
Procedure: Inoculate Huh7.5 cells into 96-well plates to a density of 3×10^4 cells/cm^2, culture for 24h, infect the cells with 45 IU/cell HCV supernatant, meanwhile, add drug solutions or solvent control for treatment.

HIV-1 III B virus = test: Anti-HIV activity assay (P24 antigen in MT-4 cells); details: for IC50: Human immunodeficiency virus 1, MT4, 96 h, read-out: HIV IC50; for anti-HIV viral activity: statement in words
PC12 cells [2] = test: Neuroprotective activity assay, serum-deprived injury to PC12 cells (MTT); details: 10 μM test compound, 48 h, Control 100.0 ± 9.2, Model 69.3 ± 4.1; for viability at 10 µM: Rattus norvegicus, PC-12, 48 h, read-out: serum-deprived (surviving PC12 cells, MTT 570 nm)
Procedure: (§1) Discard the original culture media from confluent monolayers of PC12 cells (simulated neuronal cells), add DMEM complete medium with 5% FBS, 5% horse serum gently beat upon the cells with a pipette to completely disperse them, inoculate 100 μl cell suspension at a density of […] per well to 96 hole plates treated with poly-lysine (0.1 mg/ml) in advance, culture for 24h. Divide the experimenting cells into control group, model group and dosing groups. Add complete medium to the control group. Model groups includes rotenone group and serum-deprived group, add rotenone to the corresponding modules with a final concentration of 4 μM rotenone to take effect on the cells for 48 h, add serum-deprived groups with serum-free DMEM medium to take effect on the cells for 48 h. Dosing groups also includes two groups, one using rotenone module as model, another using serum-deprived module as model, and both add in 10 μM test compounds during modeling. 48h later, add 10 μl 5 mg/ml MTT, subsequently discard the supernatant 4h later and add in 150 μl DMSO, measure 570 nm absorbance to represent the numbers of surviving cells.

PC12 cells [3] = test: Neuroprotective activity assay, rotenone injury to PC12 cells (MTT); details: 10 μM test compound, 4 μM rotenone, 48 h, Control 100.0 ± 8.9, Model 73.2 ± 7.8; for viability at 10 µM: Rattus norvegicus, PC-12, 48 h, read-out: rotenone (surviving PC12 cells, MTT 570 nm)
Procedure: as §1

[4] = Huh7.5 cells, 72 h, HCV RNA by RT-PCR, Reed-Muench
[5] = MT-4 cells, HIV-1 III B 100TCID50, 96 h, P24 antigen
[6] = read-out: COX-B6 IC50, Vero cells, about 100TCID50, CPE, Reed-Muench

| Molecule | Influenza A virus (hanfang359/95) IC50 [1] [µg/mL] | COX-B6 IC50 (Coxsackie virus B6) [µg/mL] | HCV EC50 (HCV; [4]) [µg/mL] | HIV IC50 (HIV-1 III B virus; [5]) [µg/mL] | serum-deprived (surviving PC12 cells, MTT 570 nm) (PC12 cells [2]) | rotenone (surviving PC12 cells, MTT 570 nm) (PC12 cells [3]) | IC50 [1] [µg/mL] | IC50 (Coxsackie virus B6; [6]) [µg/mL] | EC50 (HCV; [4]) [µg/mL] | anti-HCV viral activity (HCV) | IC50 (HIV-1 III B virus; [5]) [µg/mL] | anti-HIV viral activity (HIV-1 III B virus) | viability at 10 µM (PC12 cells [2]) [%] | viability at 10 µM (PC12 cells [3]) [%] | anti-influenza virus activities compared with the lead compound cajanine [1] | IC50 (Coxsackie virus B6; read-out: COX-B6 IC50) [µg/mL] | EC50 (HCV) [µg/mL] | IC50 (HIV-1 III B virus) [µg/mL] |
| --- | --- | --- | --- | --- | --- | --- | --- | --- | --- | --- | --- | --- | --- | --- | --- | --- | --- | --- |
| 2-isopentenyl-3-methoxy-5-[4′-methylcyclohexylene methyl]phenol [Compound 10n] | >0.69 | >2.05 | 0.89 | 1.43 | 79.6 ± 2.8 | 78.6 ± 3.2 | – | – | – | – | – | – | – | – | – | – | – | – |
| COc1cc(/C=C/c2cc(O)cc(O)n2)c(C(=O)O)c(O)c1CC=C(C)C [1a′, 2-hydroxy-3-isopentenyl-4-methoxy-6-[(E)-2-(4,6-dihydroxy-2-yl)ethenyl]benzoic acid] | – | – | – | – | – | – | 0.19 (≈ 0.512 µM) | 0.36 (≈ 0.969 µM) | 0.94 (≈ 2.53 µM) | stronger anti-HIV, HCV viral activities | 1.38 (≈ 3.72 µM) | stronger anti-HIV, HCV viral activities | 88.7 ± 4.9 | 87.2 ± 4.3 | – | – | – | – |
| COc1cccc(/C=C/c2cc(OC)c(CC=C(C)C)c(O)c2C(=O)O)n1 [1b′, 2-hydroxy-3-isopentenyl-4-methoxy-6-[(E)-2-(6-methoxypyrid-2-yl)ethenyl]benzoic acid] | – | – | – | – | – | – | 4.62 (≈ 12.5 µM) | 5.98 (≈ 16.2 µM) | 0.88 (≈ 2.38 µM) | stronger anti-HIV, HCV viral activities | 3.19 (≈ 8.64 µM) | stronger anti-HIV, HCV viral activities | 88.9 ± 1.9 | 87.2 ± 6.31 | – | – | – | – |
| COc1cc(/C=C/c2cccc(O)n2)c(C(=O)O)c(O)c1CC=C(C)C [1c′, 2-hydroxy-3-isopentenyl-4-methoxy-6-[(E)-2-(6-hydroxypyrid-2-yl)ethenyl]benzoic acid] | – | – | – | – | – | – | 1.34 (≈ 3.77 µM) | 2.56 (≈ 7.2 µM) | 1.3 (≈ 3.66 µM) | – | 1.61 (≈ 4.53 µM) | – | 85.9 ± 4.7 | 85.6 ± 3.8 | – | – | – | – |
| C=CCc1c(OC)cc(/C=C/c2ccccc2)c(C(=O)OC)c1O [8a′, methyl 2-hydroxy-3-allyl-4-methoxy-6-[(E)-styryl]benzoate] | – | – | – | – | – | – | 0.15 (≈ 0.462 µM) | 1.64 (≈ 5.06 µM) | – | – | – | – | 87.9 ± 2.5 | 88 ± 6.9 | – | – | – | – |
| COc1cc(/C=C/c2cc(O)ccn2)cc(O)c1CC=C(C)C [10a′, 2-isopentenyl-3-methoxy-5-[(E)-2-(4-hydroxypyrid-2-yl)ethenyl]phenol] | – | – | – | – | – | – | 0.17 (≈ 0.546 µM) | 0.41 (≈ 1.32 µM) | 1.41 (≈ 4.53 µM) | – | 1.33 (≈ 4.27 µM) | – | 86.3 ± 1.2 | 89.2 ± 3.2 | – | – | – | – |
| COc1cc(/C=C/c2cc(O)c(CC=C(C)C)c(OC)c2)nc(OC)c1 [10d′] | – | – | – | – | – | – | 0.14 (≈ 0.394 µM) | 0.35 (≈ 0.985 µM) | 0.65 (≈ 1.83 µM) | – | 1.3 (≈ 3.66 µM) | – | 91.2 ± 3.2 | 94.3 ± 5.4 | – | – | – | – |
| COc1cc(/C=C/c2cc(O)cc(O)n2)cc(O)c1CC=C(C)C [10e′] | – | – | – | – | – | – | 0.21 (≈ 0.641 µM) | 1.21 (≈ 3.7 µM) | 1.87 (≈ 5.71 µM) | – | 0.71 (≈ 2.17 µM) | – | 87.9 ± 4.7 | 88.9 ± 2.8 | – | – | – | – |
| COc1cccc(/C=C/c2cc(O)c(CC=C(C)C)c(OC)c2)n1 [10f′] | – | – | – | – | – | – | 0.23 (≈ 0.707 µM) | 2.31 (≈ 7.1 µM) | 0.61 (≈ 1.87 µM) | – | 1.04 (≈ 3.2 µM) | – | 80.5 ± 3.2 | 79.1 ± 5.6 | – | – | – | – |
| COc1cc(/C=C/c2cccc(O)n2)cc(O)c1CC=C(C)C [10g′] | – | – | – | – | – | – | 0.87 (≈ 2.79 µM) | 0.12 (≈ 0.385 µM) | 2.3 (≈ 7.39 µM) | – | 3.93 (≈ 12.6 µM) | – | 71 ± 5.2 | 63.5 ± 2.1 | – | – | – | – |
| C=CCc1c(O)cc(/C=C/c2ccccc2)cc1OC [10h′, 2-allyl-3-methoxy-5-[(E)-styryl]phenol] | – | – | – | – | – | – | 0.09 (≈ 0.338 µM) | 0.54 (≈ 2.03 µM) | – | – | – | – | 87.6 ± 4.3 | 86.7 ± 4.5 | – | – | – | – |
| COc1cc(/C=C/c2ccc(F)cc2)c(C(=O)O)c(O)c1CC=C(C)C [Compound 1a, 2-hydroxy-3-isopentenyl-4-methoxy-6-[(E)-4-fluorostyryl]benzoic acid] | – | – | – | – | – | – | > 0.69 | > 0.69 | 1.04 (≈ 2.92 µM) | stronger anti-HIV, HCV viral activities | 1.01 (≈ 2.83 µM) | stronger anti-HIV, HCV viral activities | 16.7 ± 0.6 | 62.4 ± 3.8 | – | – | – | – |
| COc1cc(/C=C/c2ccccc2Cl)c(C(=O)O)c(O)c1CC=C(C)C [Compound 1b, 2-hydroxy-3-isopentenyl-4-methoxy-6-[(E)-2-chlorostyryl]benzoic acid] | – | – | – | – | – | – | > 18.5 | > 1.03 | 0.67 (≈ 1.8 µM) | stronger anti-HIV, HCV viral activities | 1.22 (≈ 3.27 µM) | stronger anti-HIV, HCV viral activities | 15.7 ± 0.3 | 68.2 ± 8 | – | – | – | – |
| COc1ccc(/C=C/c2cc(OC)c(CC=C(C)C)c(O)c2C(=O)O)cc1 [Compound 1c] | – | – | – | – | – | – | > 2.06 | 1.6 (≈ 4.34 µM) | 2.69 (≈ 7.3 µM) | stronger anti-HIV, HCV viral activities | 1.64 (≈ 4.45 µM) | stronger anti-HIV, HCV viral activities | 16.1 ± 0.7 | 77.2 ± 0.6 | – | – | – | – |
| COc1cc(/C=C/c2ccccc2C)c(C(=O)O)c(O)c1CC=C(C)C [Compound 1e, 2-hydroxy-3-isopentenyl-4-methoxy-6-[(E)-2-methylstyryl]benzoic acid] | – | – | – | – | – | – | > 2.47 | 3.26 (≈ 9.25 µM) | 0.47 (≈ 1.33 µM) | stronger anti-HIV, HCV viral activities | 2.7 (≈ 7.66 µM) | stronger anti-HIV, HCV viral activities | 30.6 ± 12 | 55.6 ± 9.9 | – | – | – | – |
| COc1cc(/C=C/c2cccc(C)c2)c(C(=O)O)c(O)c1CC=C(C)C [Compound 1f, 2-hydroxy-3-isopentenyl-4-methoxy-6-[(E)-3-methylstyryl]benzoic acid] | – | – | – | – | – | – | 0.48 (≈ 1.36 µM) | 4.65 (≈ 13.2 µM) | 0.53 (≈ 1.5 µM) | stronger anti-HIV, HCV viral activities | 1.45 (≈ 4.11 µM) | stronger anti-HIV, HCV viral activities | 31.7 ± 10.3 | 58 ± 4.5 | significantly stronger than the lead compound cajanine | – | – | – |
| COc1cc(/C=C/c2ccc(C)cc2)c(C(=O)O)c(O)c1CC=C(C)C [Compound 1g, 2-hydroxy-3-isopentenyl-4-methoxy-6-[(E)-4-methylstyryl]benzoic acid] | – | – | – | – | – | – | > 0.82 | 4.25 (≈ 12.1 µM) | 1.43 (≈ 4.06 µM) | – | 0.68 (≈ 1.93 µM) | – | 59.8 ± 11.4 | 77.7 ± 12.9 | – | – | – | – |
| CC/C=C/c1cc(OC)c(CC=C(C)C)c(O)c1C(=O)O [Compound 1h, 2-hydroxy-3-isopentenyl-4-methoxy-6-[(E)-buten-1-yl]benzoic acid] | – | – | – | – | – | – | 1.92 (≈ 6.61 µM) | 15.3 (≈ 52.7 µM) | 2.6 (≈ 8.95 µM) | – | 2.39 (≈ 8.23 µM) | – | 43.8 ± 8.8 | 70 ± 7.1 | – | – | – | – |
| COc1cc(/C=C/c2ccccc2)cc(OC(=O)NN)c1CC=C(C)C [Compound 29c, 2-isopentenyl-3-hydrazinoformylox-5-[(E)-styryl]anisole] | – | – | – | – | – | – | 0.24 (≈ 0.681 µM) | – | – | – | – | – | – | – | significantly stronger than the lead compound cajanine | 0.36 (≈ 1.02 µM) | 0.89 (≈ 2.53 µM) | 0.6 (≈ 1.7 µM) |
| COC(=O)c1c(/C=C/c2ccccc2)cc(OC)c(CC=C(C)C)c1OC(=O)C(=O)O [Compound 31a, methyl 2-carboxyformylxy-3-isopentenyl-4-methoxy-6-[(E)-styryl]benzoate] | – | – | – | – | – | – | 0.14 (≈ 0.33 µM) | 2.31 (≈ 5.44 µM) | 0.71 (≈ 1.67 µM) | – | 1.3 (≈ 3.06 µM) | – | – | – | significantly stronger than the lead compound cajanine | – | – | – |
| COc1cc(/C=C/c2ccccc2)cc(OC(=O)C(=O)O)c1CC=C(C)C [Compound 31c, 2-isopentenyl-3-carboxyformyloxy-5-[(E)-styryl]anisole] | – | – | – | – | – | – | 0.08 (≈ 0.218 µM) | 0.67 (≈ 1.83 µM) | 0.77 (≈ 2.1 µM) | stronger anti-HIV, HCV viral activities | 0.29 (≈ 0.791 µM) | stronger anti-HIV, HCV viral activities | – | – | significantly stronger than the lead compound cajanine | – | – | – |
